Data from ChEMBL document CHEMBL5715958 (Mol Cancer Res, 2018).
Calls of active or inactive are those of the source. No cut-off for these calls is given here.

Experiments:
[1] = biological target: Dual specificity mitogen-activated protein kinase kinase 2 (Homo sapiens) (UniProt P36507); experiment: Inhibition of MIB binding to MEK2 in human NCI-H2228 cell lysate at high dose incubated for 1 hr by Western blotting analysis; assay type: subcellular; details: dose 3-3000 µM
[2] = biological target: Tyrosine-protein kinase receptor UFO (Homo sapiens) (UniProt P30530); experiment: Inhibition of MIB binding to AXL in human NCI-H2228 cell lysate at high dose incubated for 1 hr by Western blotting analysis; assay type: subcellular; details: dose 3-3000 µM
[3] = system: Mus musculus; experiment: Inhibition of MIB binding to MEK1 in mouse kidney at 3 mg/kg, po measured after 2 hr by MIB/MS competitive binding analysis; assay type: functional, organism-based
[4] = biological target: Tyrosine-protein kinase receptor UFO (Homo sapiens) (UniProt P30530); experiment: Inhibition of MIB binding to AXL in human NCI-H2228 cells at 3 to 3000 uM incubated for 1 hr by Western blotting analysis; assay type: cell-based; details: dose 3-3000 µM
[5] = biological target: Dual specificity mitogen-activated protein kinase kinase 1 (Homo sapiens) (UniProt Q02750); experiment: Inhibition of MIB binding to MEK1 in human NCI-H2228 cells at 3 to 3000 uM incubated for 1 hr by Western blotting analysis; assay type: cell-based; details: dose 3-3000 µM
[6] = biological target: Tyrosine-protein kinase receptor UFO (Homo sapiens) (UniProt P30530); experiment: Inhibition of MIB binding to AXL in human NCI-H2228 cell lysate at 3 to 3000 uM pre-incubated with MIB followed by compound addition measured after 1 hr by Western blotting analysis; assay type: subcellular; details: dose 3-3000 µM
[7] = biological target: Dual specificity mitogen-activated protein kinase kinase 2 (Homo sapiens) (UniProt P36507); experiment: Inhibition of MIB binding to MEK2 in human NCI-H2228 cells at 3 to 3000 uM incubated for 1 hr by Western blotting analysis; assay type: cell-based; details: dose 3-3000 µM
[8] = biological target: Dual specificity mitogen-activated protein kinase kinase 1 (Homo sapiens) (UniProt Q02750); experiment: Inhibition of MIB binding to MEK1 in human NCI-H2228 cell lysate at 3 to 3000 uM pre-incubated with MIB followed by compound addition measured after 1 hr by Western blotting analysis; assay type: subcellular; details: dose 3-3000 µM
[9] = biological target: Dual specificity mitogen-activated protein kinase kinase 2 (Homo sapiens) (UniProt P36507); experiment: Inhibition of MIB binding to MEK2 in human NCI-H2228 cell lysate at 3 to 3000 uM pre-incubated with MIB followed by compound addition measured after 1 hr by Western blotting analysis; assay type: subcellular; details: dose 3-3000 µM
[10] = biological target: Dual specificity mitogen-activated protein kinase kinase 1 (Homo sapiens) (UniProt Q02750); experiment: Inhibition of MIB binding to MEK1 in human NCI-H2228 cell lysate at high dose incubated for 1 hr by Western blotting analysis; assay type: subcellular
[11] = system: Mus musculus; experiment: Inhibition of MIB binding to MEK2 in mouse kidney at 3 mg/kg, po measured after 2 hr by MIB/MS competitive binding analysis; assay type: functional, organism-based
[12] = system: RKO; experiment: Effect on beta-catenin protein level in human RKO cells at 5 uM incubated for 6 hrs by Western blotting analysis; assay type: functional, cell-based
[13] = system: L-M(TK-); experiment: Effect on beta-catenin protein level in mouse L-M(TK-) cells at 5 uM incubated for 6 hrs by Western blotting analysis; assay type: functional, cell-based
[14] = biological target: Calcium/calmodulin-dependent protein kinase type II subunit beta (Homo sapiens, UniProt Q13554); experiment: Inhibition of human CAMK2beta preincubated with compound for 20 mins followed by [33P]ATP addition and measured after 2 hrs by filter binding method
[15] = biological target: Cyclin-dependent kinase 4 (Homo sapiens) (UniProt P11802); experiment: Inhibition of MIB binding to CDK4 in human NCI-H2228 cells at 0.01 to 10 uM incubated for 1 hr by Western blotting analysis; assay type: cell-based; details: dose 0.01-10 µM
[16] = biological target: Glycogen synthase kinase-3 beta (Homo sapiens) (UniProt P49841); experiment: Inhibition of MIB binding to GSK3beta in human NCI-H2228 cells at 0.01 to 10 uM incubated for 1 hr by Western blotting analysis; assay type: cell-based; details: dose 0.01-10 µM
[17] = biological target: Tyrosine-protein kinase Yes (Homo sapiens) (UniProt P07947); experiment: Inhibition of MIB binding to YES1 in human NCI-H2228 cells at 0.01 to 10 uM incubated for 1 hr by MIB/MS competitive binding analysis; assay type: cell-based; details: dose 0.01-10 µM
[18] = biological target: Tyrosine-protein kinase Lyn (Homo sapiens) (UniProt P07948); experiment: Inhibition of MIB binding to LYN in human NCI-H2228 cells at 0.01 to 10 uM incubated for 1 hr by MIB/MS competitive binding analysis; assay type: cell-based; details: dose 0.01-10 µM
[19] = biological target: Calcium/calmodulin-dependent protein kinase type II subunit gamma (Homo sapiens, UniProt Q13555); experiment: Inhibition of human CAMK2gamma preincubated with compound for 20 mins followed by [33P]ATP addition and measured after 2 hrs by filter binding method
[20] = biological target: Calcium/calmodulin-dependent protein kinase type II subunit delta (Homo sapiens, UniProt Q13557); experiment: Inhibition of human CAMK2delta preincubated with compound for 20 mins followed by [33P]ATP addition and measured after 2 hrs by filter binding method
Sequence of Calcium/calmodulin-dependent protein kinase type II subunit delta (Q13557 whole entry): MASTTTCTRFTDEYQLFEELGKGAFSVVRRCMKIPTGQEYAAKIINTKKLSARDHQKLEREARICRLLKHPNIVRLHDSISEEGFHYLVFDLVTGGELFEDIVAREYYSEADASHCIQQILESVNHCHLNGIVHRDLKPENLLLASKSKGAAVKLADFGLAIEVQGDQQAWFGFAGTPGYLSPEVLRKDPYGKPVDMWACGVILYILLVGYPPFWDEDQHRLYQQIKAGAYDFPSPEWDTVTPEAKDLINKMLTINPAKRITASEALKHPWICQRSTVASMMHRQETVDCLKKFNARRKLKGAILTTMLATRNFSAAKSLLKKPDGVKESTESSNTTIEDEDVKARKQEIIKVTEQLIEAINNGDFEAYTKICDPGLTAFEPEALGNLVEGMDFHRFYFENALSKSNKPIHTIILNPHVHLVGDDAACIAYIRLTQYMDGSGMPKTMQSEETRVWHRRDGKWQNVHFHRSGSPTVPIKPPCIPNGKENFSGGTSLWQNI

Sequence of Tyrosine-protein kinase receptor UFO (Homo sapiens) (P30530 whole entry): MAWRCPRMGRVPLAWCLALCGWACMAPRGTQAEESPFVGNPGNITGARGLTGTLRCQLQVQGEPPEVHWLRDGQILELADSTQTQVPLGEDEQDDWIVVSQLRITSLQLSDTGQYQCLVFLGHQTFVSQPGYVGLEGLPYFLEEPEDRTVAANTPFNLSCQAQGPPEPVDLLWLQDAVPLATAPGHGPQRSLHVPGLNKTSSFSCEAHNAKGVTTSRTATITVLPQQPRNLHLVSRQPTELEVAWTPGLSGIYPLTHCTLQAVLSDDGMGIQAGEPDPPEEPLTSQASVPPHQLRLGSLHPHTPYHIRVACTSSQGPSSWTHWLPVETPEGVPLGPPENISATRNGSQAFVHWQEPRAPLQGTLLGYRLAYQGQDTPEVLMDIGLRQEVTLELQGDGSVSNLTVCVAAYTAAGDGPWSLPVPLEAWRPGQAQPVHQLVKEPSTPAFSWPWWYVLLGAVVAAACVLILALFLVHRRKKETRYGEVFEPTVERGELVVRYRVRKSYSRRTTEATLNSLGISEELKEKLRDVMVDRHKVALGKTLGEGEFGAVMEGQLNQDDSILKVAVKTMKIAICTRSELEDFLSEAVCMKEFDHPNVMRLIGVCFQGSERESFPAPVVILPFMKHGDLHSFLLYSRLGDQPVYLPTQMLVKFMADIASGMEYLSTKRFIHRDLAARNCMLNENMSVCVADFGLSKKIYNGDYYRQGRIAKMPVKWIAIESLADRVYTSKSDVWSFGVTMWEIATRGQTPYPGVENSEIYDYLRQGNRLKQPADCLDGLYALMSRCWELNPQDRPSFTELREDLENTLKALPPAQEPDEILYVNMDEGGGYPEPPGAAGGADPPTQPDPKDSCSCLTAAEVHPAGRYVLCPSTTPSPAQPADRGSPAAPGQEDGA
Sequence of Dual specificity mitogen-activated protein kinase kinase 1 (Homo sapiens) (Q02750 whole entry): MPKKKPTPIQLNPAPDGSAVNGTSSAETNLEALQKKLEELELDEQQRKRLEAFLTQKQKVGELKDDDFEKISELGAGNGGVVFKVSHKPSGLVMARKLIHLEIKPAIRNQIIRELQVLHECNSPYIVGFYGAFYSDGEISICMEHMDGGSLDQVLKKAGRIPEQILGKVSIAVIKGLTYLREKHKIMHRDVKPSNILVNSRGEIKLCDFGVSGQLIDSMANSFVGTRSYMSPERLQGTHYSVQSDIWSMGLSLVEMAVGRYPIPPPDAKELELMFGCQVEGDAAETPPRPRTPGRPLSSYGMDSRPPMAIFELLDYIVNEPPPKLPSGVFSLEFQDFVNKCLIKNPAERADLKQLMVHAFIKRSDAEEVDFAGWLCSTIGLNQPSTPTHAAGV
Sequence of Dual specificity mitogen-activated protein kinase kinase 2 (Homo sapiens) (P36507 whole entry): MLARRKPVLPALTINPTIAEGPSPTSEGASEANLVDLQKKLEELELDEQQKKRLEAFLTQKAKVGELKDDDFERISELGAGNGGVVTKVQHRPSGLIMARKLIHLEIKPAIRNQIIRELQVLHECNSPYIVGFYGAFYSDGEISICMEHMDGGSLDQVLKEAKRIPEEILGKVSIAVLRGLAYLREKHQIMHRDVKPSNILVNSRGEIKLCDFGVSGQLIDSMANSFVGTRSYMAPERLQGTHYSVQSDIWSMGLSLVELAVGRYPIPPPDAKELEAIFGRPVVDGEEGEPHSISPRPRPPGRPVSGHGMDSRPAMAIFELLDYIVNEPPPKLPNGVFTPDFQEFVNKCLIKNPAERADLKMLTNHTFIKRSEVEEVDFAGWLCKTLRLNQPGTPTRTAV
Sequence of Calcium/calmodulin-dependent protein kinase type II subunit beta (Q13554 whole entry): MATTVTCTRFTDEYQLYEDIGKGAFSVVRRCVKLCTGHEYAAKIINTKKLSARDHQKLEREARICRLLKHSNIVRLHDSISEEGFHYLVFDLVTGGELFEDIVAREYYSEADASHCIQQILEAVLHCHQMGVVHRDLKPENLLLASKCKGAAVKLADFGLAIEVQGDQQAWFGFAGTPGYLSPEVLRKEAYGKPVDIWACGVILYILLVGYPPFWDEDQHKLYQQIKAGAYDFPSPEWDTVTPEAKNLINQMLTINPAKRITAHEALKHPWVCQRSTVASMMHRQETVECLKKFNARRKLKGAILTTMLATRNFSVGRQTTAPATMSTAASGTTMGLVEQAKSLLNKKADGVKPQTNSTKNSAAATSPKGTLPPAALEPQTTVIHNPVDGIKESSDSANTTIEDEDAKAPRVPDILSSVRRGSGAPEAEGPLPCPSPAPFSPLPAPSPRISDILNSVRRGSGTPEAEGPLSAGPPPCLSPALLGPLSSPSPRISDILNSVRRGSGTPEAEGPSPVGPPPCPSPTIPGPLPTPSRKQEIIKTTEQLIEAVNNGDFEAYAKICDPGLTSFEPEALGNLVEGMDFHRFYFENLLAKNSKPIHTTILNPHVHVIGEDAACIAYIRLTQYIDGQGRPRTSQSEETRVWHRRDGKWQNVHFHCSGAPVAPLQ
Sequence of Tyrosine-protein kinase Yes (Homo sapiens) (P07947 2-543 limits assumed): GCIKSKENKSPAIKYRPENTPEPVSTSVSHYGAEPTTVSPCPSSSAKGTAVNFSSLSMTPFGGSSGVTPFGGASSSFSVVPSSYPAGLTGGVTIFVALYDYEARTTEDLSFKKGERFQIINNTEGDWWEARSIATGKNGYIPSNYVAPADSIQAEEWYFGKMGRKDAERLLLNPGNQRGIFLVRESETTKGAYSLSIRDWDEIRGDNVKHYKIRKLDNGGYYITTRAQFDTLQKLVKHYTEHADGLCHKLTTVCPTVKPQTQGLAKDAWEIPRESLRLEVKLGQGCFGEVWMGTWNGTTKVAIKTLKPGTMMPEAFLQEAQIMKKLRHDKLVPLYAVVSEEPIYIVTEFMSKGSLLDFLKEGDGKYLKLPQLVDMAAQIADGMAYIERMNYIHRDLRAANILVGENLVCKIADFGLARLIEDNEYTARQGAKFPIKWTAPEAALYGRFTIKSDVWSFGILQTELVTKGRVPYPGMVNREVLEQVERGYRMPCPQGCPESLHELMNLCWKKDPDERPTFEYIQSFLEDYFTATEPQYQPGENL
Sequence of Cyclin-dependent kinase 4 (Homo sapiens) (P11802 whole entry): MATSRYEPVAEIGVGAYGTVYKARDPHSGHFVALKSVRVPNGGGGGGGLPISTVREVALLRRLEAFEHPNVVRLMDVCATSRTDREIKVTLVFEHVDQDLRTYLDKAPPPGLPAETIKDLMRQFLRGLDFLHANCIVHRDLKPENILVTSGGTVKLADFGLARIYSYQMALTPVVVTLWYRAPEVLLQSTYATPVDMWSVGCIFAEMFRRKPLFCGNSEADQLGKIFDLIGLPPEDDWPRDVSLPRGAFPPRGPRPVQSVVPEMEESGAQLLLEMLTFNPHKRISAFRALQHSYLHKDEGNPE
Sequence of Tyrosine-protein kinase Lyn (Homo sapiens) (P07948 2-512 limits assumed): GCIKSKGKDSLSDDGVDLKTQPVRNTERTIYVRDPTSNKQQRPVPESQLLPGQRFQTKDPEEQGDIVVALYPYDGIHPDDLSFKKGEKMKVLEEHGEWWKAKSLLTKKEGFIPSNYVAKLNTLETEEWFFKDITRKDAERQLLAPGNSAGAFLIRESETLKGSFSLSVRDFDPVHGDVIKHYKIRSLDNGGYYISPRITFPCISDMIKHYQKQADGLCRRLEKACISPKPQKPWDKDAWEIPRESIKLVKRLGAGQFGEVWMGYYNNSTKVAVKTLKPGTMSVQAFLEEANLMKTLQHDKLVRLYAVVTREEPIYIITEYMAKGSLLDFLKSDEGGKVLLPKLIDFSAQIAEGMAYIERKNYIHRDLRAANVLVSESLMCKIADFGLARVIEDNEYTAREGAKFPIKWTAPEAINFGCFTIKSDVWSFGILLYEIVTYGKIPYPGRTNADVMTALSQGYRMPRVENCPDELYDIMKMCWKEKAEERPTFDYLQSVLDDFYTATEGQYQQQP
Sequence of Glycogen synthase kinase-3 beta (Homo sapiens) (P49841 whole entry, looked up): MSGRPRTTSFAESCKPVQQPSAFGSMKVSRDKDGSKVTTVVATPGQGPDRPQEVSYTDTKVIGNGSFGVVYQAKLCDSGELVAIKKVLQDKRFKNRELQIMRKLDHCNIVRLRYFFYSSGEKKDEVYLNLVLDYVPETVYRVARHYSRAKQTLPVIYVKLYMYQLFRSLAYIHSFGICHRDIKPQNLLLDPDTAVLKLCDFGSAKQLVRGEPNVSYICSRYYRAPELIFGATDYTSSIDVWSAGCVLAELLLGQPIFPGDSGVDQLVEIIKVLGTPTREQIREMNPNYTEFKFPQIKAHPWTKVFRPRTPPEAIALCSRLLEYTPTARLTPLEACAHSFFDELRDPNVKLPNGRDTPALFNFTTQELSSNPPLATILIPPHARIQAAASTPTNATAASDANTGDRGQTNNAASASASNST

CC(=O)Nc1cccc(-n2c(=O)n(C3CC3)c(=O)c3c(Nc4ccc(I)cc4F)n(C)c(=O)c(C)c32)c1
inhibition [1]: Active
inhibition [2]: inactive
inhibition [3]: Active
inhibition [4]: inactive
inhibition [5]: Active
inhibition [6]: inactive
inhibition [7]: Active
inhibition [8]: Active
inhibition [9]: Active
inhibition [10]: Active
inhibition [11]: Active

CC(=O)c1c(C)c2cnc(Nc3ccc(N4CCNCC4)cn3)nc2n(C2CCCC2)c1=O [PALBOCICLIB]
Activity [12]: inactive
Activity [13]: inactive
IC50 [14]: 1600 nM

CN(C)C(=O)c1cc2cnc(Nc3ccc(N4CCNCC4)cn3)nc2n1C1CCCC1
inhibition [15]: Active
inhibition [16]: inactive

Cc1nc(Nc2ncc(C(=O)Nc3c(C)cccc3Cl)s2)cc(N2CCN(CCO)CC2)n1
inhibition [17]: Active
inhibition [18]: Active

CCN1CCN(Cc2ccc(Nc3ncc(F)c(-c4cc(F)c5nc(C)n(C(C)C)c5c4)n3)nc2)CC1 [ABEMACICLIB]
IC50 [14]: 3.5 nM
IC50 [19]: 52 nM
IC50 [20]: 2.6 nM
